Data published in patent US10246453B2, “Benzenesulfonamide compounds and their use as therapeutic agents” (Xenon Pharmaceuticals Inc., priority 2016, dated 2019).
Structures can show the parent of a compound that is named as a salt.

Key:
[1] = biological target: NaV1.6 (Homo sapiens (Human), UniProt Q9UQD0); experiment: Sodium Influx Assay (Flux), NaV1.6; details: read-out: Flux NaV1.6 IC50; Trex HEK293 cells, ANG2 dye; arithmetic mean
[2] = biological target: NaV1.1 (Homo sapiens (Human), UniProt P35498); experiment: Sodium Influx Assay (Flux), NaV1.1; assay type: cell-based; details: Trex HEK293 cells, ANG2 dye; arithmetic mean
[3] = biological target: NaV1.5 (Homo sapiens (Human), UniProt Q14524); experiment: Sodium Influx Assay (Flux), NaV1.5; details: read-out: Flux NaV1.5 IC50; Trex HEK293 cells, ANG2 dye; arithmetic mean
Sequence of NaV1.5 (Q14524 other isoform, or with tags, fused parts or gaps): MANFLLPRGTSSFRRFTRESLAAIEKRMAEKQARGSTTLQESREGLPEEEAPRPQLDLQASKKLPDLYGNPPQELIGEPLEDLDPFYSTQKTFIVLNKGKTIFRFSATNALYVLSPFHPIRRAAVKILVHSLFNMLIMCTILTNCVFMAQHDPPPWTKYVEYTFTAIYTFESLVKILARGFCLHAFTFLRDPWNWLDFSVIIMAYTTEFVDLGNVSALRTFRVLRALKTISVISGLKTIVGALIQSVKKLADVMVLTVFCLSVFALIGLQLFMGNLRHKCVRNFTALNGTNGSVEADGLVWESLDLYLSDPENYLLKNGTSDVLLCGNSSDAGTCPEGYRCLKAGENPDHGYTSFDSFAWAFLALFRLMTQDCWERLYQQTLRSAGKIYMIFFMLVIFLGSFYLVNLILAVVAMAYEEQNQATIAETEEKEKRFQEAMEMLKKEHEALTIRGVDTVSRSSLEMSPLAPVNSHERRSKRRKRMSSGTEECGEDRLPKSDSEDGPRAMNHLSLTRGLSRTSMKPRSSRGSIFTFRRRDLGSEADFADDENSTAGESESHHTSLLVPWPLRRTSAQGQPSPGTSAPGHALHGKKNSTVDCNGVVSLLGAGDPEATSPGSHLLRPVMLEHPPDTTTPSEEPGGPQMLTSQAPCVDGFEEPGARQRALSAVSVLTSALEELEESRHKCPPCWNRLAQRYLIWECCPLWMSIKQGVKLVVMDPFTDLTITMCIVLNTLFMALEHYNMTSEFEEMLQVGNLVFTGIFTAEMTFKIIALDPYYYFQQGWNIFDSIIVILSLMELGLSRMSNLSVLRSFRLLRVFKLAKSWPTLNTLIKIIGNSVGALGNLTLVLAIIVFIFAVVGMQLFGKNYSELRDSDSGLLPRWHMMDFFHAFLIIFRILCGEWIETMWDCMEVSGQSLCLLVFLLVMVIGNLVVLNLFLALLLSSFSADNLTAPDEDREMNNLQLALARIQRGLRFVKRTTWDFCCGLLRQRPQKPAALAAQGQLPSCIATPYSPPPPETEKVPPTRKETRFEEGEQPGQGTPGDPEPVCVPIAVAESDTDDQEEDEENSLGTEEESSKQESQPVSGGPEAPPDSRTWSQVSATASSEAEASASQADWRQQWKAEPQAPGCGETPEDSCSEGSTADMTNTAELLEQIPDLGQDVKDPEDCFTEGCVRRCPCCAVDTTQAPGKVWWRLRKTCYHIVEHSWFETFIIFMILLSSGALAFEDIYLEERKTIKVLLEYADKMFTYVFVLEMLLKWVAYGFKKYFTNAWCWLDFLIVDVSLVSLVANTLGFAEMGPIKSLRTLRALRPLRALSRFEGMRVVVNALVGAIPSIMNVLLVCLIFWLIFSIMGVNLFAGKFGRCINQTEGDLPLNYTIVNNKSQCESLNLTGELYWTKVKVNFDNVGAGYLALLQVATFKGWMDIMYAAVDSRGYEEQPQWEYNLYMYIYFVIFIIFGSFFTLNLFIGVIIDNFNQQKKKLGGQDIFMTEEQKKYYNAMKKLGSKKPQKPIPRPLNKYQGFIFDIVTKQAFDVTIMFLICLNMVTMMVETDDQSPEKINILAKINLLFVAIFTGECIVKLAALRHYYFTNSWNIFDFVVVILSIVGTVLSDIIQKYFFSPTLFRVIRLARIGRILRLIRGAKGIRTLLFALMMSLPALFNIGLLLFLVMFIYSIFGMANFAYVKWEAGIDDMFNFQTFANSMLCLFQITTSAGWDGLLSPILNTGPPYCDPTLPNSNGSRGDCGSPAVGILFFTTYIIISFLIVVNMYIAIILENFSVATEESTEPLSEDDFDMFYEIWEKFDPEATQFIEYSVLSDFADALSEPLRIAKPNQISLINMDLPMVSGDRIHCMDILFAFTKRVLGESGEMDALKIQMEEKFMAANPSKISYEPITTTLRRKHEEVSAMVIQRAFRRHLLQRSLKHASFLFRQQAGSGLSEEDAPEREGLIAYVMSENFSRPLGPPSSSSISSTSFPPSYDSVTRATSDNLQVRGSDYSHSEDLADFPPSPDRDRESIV

CN(c1cc(F)c(S(=O)(=O)Nc2cscn2)cc1C(F)F)[C@H]1CCN(Cc2ccccc2)C1 [Example 270, (S)-4-((1-benzylpyrrolidin-3-yl)(methyl)amino)-5-(difluoromethyl)-2-fluoro-N-(thiazol-4-yl)benzenesulfonamide formate]
IC50 [1]: 4.74 µM | IC50 [2]: 21.9 µM | IC50 [3]: 28.7 µM

Cc1cc(S(=O)(=O)Nc2cscn2)c(F)cc1N[C@@H]1CCN(Cc2ccccc2)C1 [Example 271, (R)-4-((1-benzylpyrrolidin-3-yl)amino)-2-fluoro-5-methyl-N-(thiazol-4-yl)benzenesulfonamide formate]
IC50 [1]: 4.09 µM | IC50 [2]: 8.7 µM | IC50 [3]: 8.18 µM

Cc1cc(S(=O)(=O)Nc2cscn2)c(F)cc1O[C@H]1CCN(Cc2ccccc2)C1 [Example 273, (S)-4-((1-benzylpyrrolidin-3-yl)oxy)-2-fluoro-5-methyl-N-(thiazol-4-yl)benzenesulfonamide 2,2,2-trifluoroacetate]
IC50 [1]: 1.99 µM | IC50 [2]: 22.5 µM | IC50 [3]: 7.1 µM

O=S(=O)(Nc1cscn1)c1c(F)cc(O[C@H]2CCN(Cc3ccccc3)C2)c(Br)c1F [Example 274, (S)-4-((1-benzylpyrrolidin-3-yl)oxy)-3-bromo-2,6-difluoro-N-(thiazol-4-yl)benzenesulfonamide formate]
IC50 [1]: 1.85 µM | IC50 [2]: > 30 µM | IC50 [3]: 10 µM

C=Cc1c(O[C@H]2CCN(Cc3ccccc3)C2)cc(F)c(S(=O)(=O)Nc2cscn2)c1F [Example 275, (S)-4-((1-benzylpyrrolidin-3-yl)oxy)-2,6-difluoro-N-(thiazol-4-yl)-3-vinylbenzenesulfonamide 2,2,2-trifluoroacetate]
IC50 [1]: 0.738 µM | IC50 [2]: 29.7 µM | IC50 [3]: 17.6 µM

CCc1c(O[C@H]2CCN(Cc3ccccc3)C2)cc(F)c(S(=O)(=O)Nc2cscn2)c1F [Example 276, (S)-4-((1-benzylpyrrolidin-3-yl)oxy)-3-ethyl-2,6-difluoro-N-(thiazol-4-yl)benzenesulfonamide 2,2,2-trifluoroacetate]
IC50 [1]: 0.566 µM | IC50 [2]: 18.7 µM | IC50 [3]: 17.9 µM

Cc1cc(S(=O)(=O)Nc2cscn2)c(F)cc1N(C)[C@H]1CCN(Cc2ccccn2)C1 [Example 278, (S)-2-fluoro-5-methyl-4-(methyl(1-(pyridin-2-ylmethyl)pyrrolidin-3-yl)amino)-N-(thiazol-4-yl)benzenesulfonamide 2,2,2-trifluoroacetate]
IC50 [1]: 0.893 µM | IC50 [2]: > 30 µM | IC50 [3]: > 30 µM

Cc1cc(S(=O)(=O)Nc2cscn2)ccc1N(C)[C@H]1CCN(Cc2cc(F)ccc2F)C1 [Example 285, (S)-4-((1-(2,5-difluorobenzyl)pyrrolidin-3-yl)(methyl)amino)-3-methyl-N-(thiazol-4-yl)benzenesulfonamide 2,2,2-trifluoroacetate]
IC50 [1]: 0.389 µM | IC50 [2]: 4.37 µM | IC50 [3]: 2.71 µM

CN(c1cc(F)c(S(=O)(=O)Nc2cscn2)c(F)c1)[C@H]1CCN(Cc2ccccc2)C1 [Example 286, (S)-4-((1-benzylpyrrolidin-3-yl)(methyl)amino)-2,6-difluoro-N-(thiazol-4-yl)benzenesulfonamide formate]
IC50 [1]: 2.22 µM | IC50 [2]: 2.27 µM | IC50 [3]: 1.99 µM

CN(c1cc(F)c(S(=O)(=O)Nc2cscn2)c(F)c1)[C@H]1CCN(Cc2cccc(C(F)F)c2)C1 [Example 287, (S)-4-((1-(3-(difluoromethyl)benzyl)pyrrolidin-3-yl)(methyl)amino)-2,6-difluoro-N-(thiazol-4-yl)benzenesulfonamide 2,2,2-trifluoroacetate]
IC50 [1]: 6.67 µM | IC50 [2]: 7.81 µM | IC50 [3]: 8.26 µM

Cc1cc(S(=O)(=O)Nc2cscn2)c(F)cc1N[C@H]1CCN(Cc2ccccc2)C1 [Example 288, (S)-4-((1-benzylpyrrolidin-3-yl)amino)-2-fluoro-5-methyl-N-(thiazol-4-yl)benzenesulfonamide 2,2,2-trifluoroacetate]
IC50 [1]: 4.32 µM | IC50 [2]: 15.9 µM | IC50 [3]: 27.4 µM

CN(c1cc(F)c(S(=O)(=O)Nc2cscn2)cc1C1CC1)[C@H]1CCN(Cc2ccccc2)C1 [Example 289, (S)-4-((1-benzylpyrrolidin-3-yl)(methyl)amino)-5-cyclopropyl-2-fluoro-N-(thiazol-4-yl)benzenesulfonamide 2,2,2-trifluoroacetate]
IC50 [1]: 1.27 µM | IC50 [2]: 7.02 µM | IC50 [3]: 19.4 µM

CCc1cc(S(=O)(=O)Nc2cscn2)c(F)cc1N(C)[C@H]1CCN(Cc2ccccc2)C1 [Example 290, (S)-4-((1-benzylpyrrolidin-3-yl)(methyl)amino)-5-ethyl-2-fluoro-N-(thiazol-4-yl)benzenesulfonamide 2,2,2-trifluoroacetate]
IC50 [1]: 1.79 µM | IC50 [2]: 6.24 µM | IC50 [3]: 5.3 µM

C[C@H](c1cc(C(F)F)ccc1F)N1CCC(Oc2ccc(S(=O)(=O)Nc3cscn3)cc2Cl)CC1 [Example 292, (R)-3-chloro-4-((1-(1-(5-(difluoromethyl)-2-fluorophenyl)ethyl)piperidin-4-yl)oxy)-N-(thiazol-4-yl)benzenesulfonamide formate]
IC50 [1]: 2.78 µM | IC50 [2]: 3.79 µM | IC50 [3]: 1.88 µM

CN(c1cc(F)c(S(=O)(=O)Nc2cscn2)cc1F)[C@H]1CCN(Cc2ccccc2)C1 [Example 293, (S)-4-((1-benzylpyrrolidin-3-yl)(methyl)amino)-2,5-difluoro-N-(thiazol-4-yl)benzenesulfonamide 2,2,2-trifluoroacetate]
IC50 [1]: 10.9 µM | IC50 [2]: > 30 µM | IC50 [3]: > 30 µM

CN(c1ccc(S(=O)(=O)Nc2cscn2)cc1C(F)(F)F)[C@H]1CCN(Cc2ccccc2)C1 [Example 294, (S)-4-((1-benzylpyrrolidin-3-yl)(methyl)amino)-N-(thiazol-4-yl)-3-(trifluoromethyl)benzenesulfonamide formate]
IC50 [1]: 2.35 µM | IC50 [2]: 15.7 µM | IC50 [3]: 16.4 µM

Cc1c(OC2CCN(Cc3ccccc3)CC2)ccc(S(=O)(=O)Nc2cscn2)c1F [Example 299, 4-((1-benzylpiperidin-4-yl)oxy)-2-fluoro-3-methyl-N-(thiazol-4-yl)benzenesulfonamide hydrochloride]
IC50 [1]: 0.324 µM | IC50 [2]: > 30 µM | IC50 [3]: 26.6 µM

C[C@@H](c1ccccc1)N1CCC(Oc2ccc(S(=O)(=O)Nc3ccncn3)cc2Cl)CC1 [Example 301, (S)-3-chloro-4-((1-(1-phenylethyl)piperidin-4-yl)oxy)-N-(pyrimidin-4-yl)benzenesulfonamide]
IC50 [1]: 2.14 µM | IC50 [2]: > 30 µM | IC50 [3]: > 30 µM

Cc1c(N(C)[C@H]2CCN(Cc3ccccc3)C2)cc(F)c(S(=O)(=O)Nc2ccc(F)cn2)c1F [Example 302, (S)-4-((1-benzylpyrrolidin-3-yl)(methyl)amino)-2,6-difluoro-N-(5-fluoropyridin-2-yl)-3-methylbenzenesulfonamide formate]
IC50 [1]: 1.16 µM | IC50 [2]: 9.55 µM | IC50 [3]: 28.9 µM

O=S(=O)(Nc1cscn1)c1ccc(OC2CCN(C3(c4ccccc4)CC3)CC2)c(Cl)c1 [Example 303, 3-chloro-4-((1-(1-phenylcyclopropyl)piperidin-4-yl)oxy)-N-(thiazol-4-yl)benzenesulfonamide]
IC50 [1]: 2.44 µM | IC50 [2]: 7.06 µM | IC50 [3]: 4.62 µM

C[C@H](c1ccccc1)N1CCC(Oc2ccc(S(=O)(=O)Nc3ncc(F)cn3)cc2Cl)CC1 [Example 304, (R)-3-chloro-N-(5-fluoropyrimidin-2-yl)-4-((1-(1-phenylethyl)piperidin-4-yl)oxy)benzenesulfonamide]
IC50 [1]: 2.48 µM | IC50 [2]: > 30 µM | IC50 [3]: > 30 µM

Cc1cc(S(=O)(=O)Nc2ccc(F)cn2)c(F)cc1N(C)[C@H]1CCN(Cc2ccccc2)C1 [Example 306, (S)-4-((1-benzylpyrrolidin-3-yl)(methyl)amino)-2-fluoro-N-(5-fluoropyridin-2-yl)-5-methylbenzenesulfonamide]
IC50 [1]: 4.56 µM | IC50 [2]: 6.73 µM | IC50 [3]: 11.9 µM

Cc1cc(S(=O)(=O)Nc2cnsc2)c(F)cc1N(C)[C@H]1CCN(Cc2ccccc2)C1 [Example 307, (S)-4-((1-benzylpyrrolidin-3-yl)(methyl)amino)-2-fluoro-N-(isothiazol-4-yl)-5-methyl benzenesulfonamide formate]
IC50 [1]: 5.31 µM | IC50 [2]: 4.11 µM | IC50 [3]: 9.79 µM

Cc1cc(S(=O)(=O)Nc2cccc(F)n2)c(F)cc1N(C)[C@H]1CCN(Cc2ccccc2)C1 [Example 308, (S)-4-((1-benzylpyrrolidin-3-yl)(methyl)amino)-2-fluoro-N-(6-fluoropyridin-2-yl)-5-methylbenzenesulfonamide]
IC50 [1]: 1.47 µM | IC50 [2]: 24.7 µM | IC50 [3]: > 30 µM

CCN(c1cc(F)c(S(=O)(=O)Nc2cscn2)cc1C)[C@H]1CCN(Cc2ccccc2)C1 [Example 312, (S)-4-((1-benzylpyrrolidin-3-yl)(ethyl)amino)-2-fluoro-5-methyl-N-(thiazol-4-yl)benzenesulfonamide 2,2,2-trifluoroacetate]
IC50 [1]: 2.77 µM | IC50 [2]: 10.2 µM | IC50 [3]: 6.45 µM

C[C@H](c1ccccc1)N1CCC(Oc2ccc(S(=O)(=O)Nc3cscn3)c(F)c2F)CC1 [Example 313, (R)-2,3-difluoro-4-((1-(1-phenylethyl)piperidin-4-yl)oxy)-N-(thiazol-4-yl)benzenesulfonamide formate]
IC50 [1]: 0.936 µM | IC50 [2]: 29.6 µM | IC50 [3]: > 30 µM

Cc1ccc(F)c(CN2CC[C@H](N(C)c3cc(F)c(S(=O)(=O)Nc4cscn4)cc3Cl)C2)n1 [Example 314, (S)-5-chloro-2-fluoro-4-((1-((3-fluoro-6-methylpyridin-2-yl)methyl)pyrrolidin-3-yl)(methyl)amino)-N-(thiazol-4-yl)benzenesulfonamide]
IC50 [1]: 0.73 µM | IC50 [2]: > 30 µM | IC50 [3]: > 30 µM
